From US4665092A, “Styrene derivatives, their use as antiallergic agents and intemediate epoxides for their synthesis” (Ortho Pharmaceutical Corporation, priority 1985, dated 1987)

Assay: Anti-allergic / anti-inflammatory activity of the invention compounds; the test is not specified (5-lipoxygenase inhibition in RBL-1 cells and active lung anaphylaxis in guinea-pigs are described)
Conditions: no IC50 or percent inhibition printed
Experimental: The compounds of the invention of formulae (I) and (II) may be used as pharmaceutical agents in the treatment of inflammation and/or allergic reactions. […] Such testing procedures were carried out on compounds of the invention as described below:
Rat basophilic leukemia cells (RBL-1) were grown in Eagle's Minimal Essential Medium containing 10% fetal calf serum, 5% calf serum, 1% glutamine and 50 mg/L gentamycin and were maintained at 37° C. in a atmosphere containing 5% CO2. Exponentially growing cells were harvested by centrifugation at 400xg for 10 minutes at 4° C. and were washed once with Dulbecco's phosphate buffered saline containing 0.87 mM CaCl2. The cells were resuspended in the same buffer at a concentration of 1.85×10^7 cells/ml. […]
In order to isolate the Δ5 -lipoxygenase product ^14 C-5-HETE that was formed from arachidonic acid, each assay tube was extracted once with 6 volumes of anhydrous diethyl ether. In most assays, the recovery of product was estimated by determining the total amount of radioactivity recovered after extraction. In the remaining assays the recovery of ^14 C-5-HETE was monitored by addition of trace quantities of ^3 H-5-HETE (New England Nuclear) prior to extraction. […] The amount of ^14 C-5-HETE presented was quantitated by liquid scintillation counting in Aquasol II (New England Nuclear) and corrected for recovery. […]

For `O[C@@H](CCCCOC1CCCCO1)[C@@H](/C=C/c1ccccc1)Sc1ccccc1` (stereo partly drawn) [Example 1g, (3R,4S)-4-Hydroxy-1-phenyl-3-phenylthio-8-(2-tetrahydropyranyloxy)-1(E)-octene], the “activity of the compound (statement in words, figures not given)” value was “Particularly active”.

For `CC(C)=CCC[C@](C)(O)[C@@H](/C=C\C=C\c1ccccc1)Sc1ccccc1` [Example 7, (5R,6S) 1-Phenyl-5-phenylthio-6-hydroxy-6,10-dimethylundeca-(1E,3Z,9)-triene Monoh ydrate], the “activity of the compound (statement in words, figures not given)” value was “Particularly active”.
